# Results taken from ChEMBL document CHEMBL1131512, “A new antitumor agent: methyl sulfonium perchlorate of echinomycin” (Bioorg Med Chem Lett, 1998).
# How the values were obtained:
# [1] = tested on: P388; assay: In vivo antitumor activity was determined against P388 tumor cell lines in mice at dose of 1 mg/kg administered intraperitoneally.; assay type: functional, Mus musculus; settings: route intraperitoneal
# [2] = tested on: B16; assay: In vivo antitumor activity was determined against B16 tumor cell lines in mice at dose of 1 mg/kg administered intraperitoneally.; assay type: functional, Mus musculus; settings: route intraperitoneal
# [3] = tested on: B16; assay: In vivo antitumor activity was determined against B16 tumor cell lines in mice at dose of 0.03125 mg/kg administered intraperitoneally.; assay type: functional, Mus musculus; settings: route intraperitoneal
# [4] = tested on: B16; assay: In vivo antitumor activity was determined against B16 tumor cell lines in mice at dose of 0.125 mg/kg administered intraperitoneally. (p<0.05); assay type: functional, Mus musculus; settings: route intraperitoneal
# [5] = tested on: P388; assay: In vivo antitumor activity was determined against P388 tumor cell lines in mice at dose of 0.0625 mg/kg administered intraperitoneally.; assay type: functional, Mus musculus; settings: route intraperitoneal
# [6] = tested on: P388; assay: In vivo antitumor activity was determined against P388 tumor cell lines in mice at dose of 0.125 mg/kg administered intraperitoneally. (p<0.05); assay type: functional, Mus musculus; settings: route intraperitoneal
# [7] = tested on: B16; assay: In vivo antitumor activity was determined against B16 tumor cell lines in mice at dose of 0.0625 mg/kg administered intraperitoneally. (p<0.05); assay type: functional, Mus musculus; settings: route intraperitoneal
# [8] = tested on: B16; assay: In vivo antitumor activity was determined against B16 tumor cell lines in mice at dose of 1 mg/kg administered intraperitoneally. (p<0.05); assay type: functional, Mus musculus; settings: route intraperitoneal
# [9] = tested on: P388; assay: In vivo antitumor activity was determined against P388 tumor cell lines in mice at dose of 0.03125 mg/kg administered intraperitoneally.; assay type: functional, Mus musculus; settings: route intraperitoneal
# [10] = tested on: P388; assay: In vivo antitumor activity was determined against P388 tumor cell lines in mice at dose of 0.25 mg/kg administered intraperitoneally. (p<0.05); assay type: functional, Mus musculus; settings: route intraperitoneal
# [11] = tested on: B16; assay: In vivo antitumor activity was determined against B16 tumor cell lines in mice at dose of 0.25 mg/kg administered intraperitoneally. (p<0.05); assay type: functional, Mus musculus; settings: route intraperitoneal
# [12] = tested on: P388; assay: In vivo antitumor activity was determined against P388 tumor cell lines in mice at dose of 1 mg/kg administered intraperitoneally (p<0.05); assay type: functional, Mus musculus; settings: route intraperitoneal
# [13] = tested on: P388; assay: In vitro cytotoxicity against P388 tumor cell lines.; assay type: functional, cell-based; settings: Mus musculus
# [14] = tested on: SNU-16; assay: In vitro cytotoxicity against SNU16 tumor cell lines.; assay type: functional, cell-based; settings: Homo sapiens
# [15] = tested on: B16; assay: In vitro cytotoxicity against B16 tumor cell lines.; assay type: functional, cell-based; settings: Mus musculus
# [16] = tested on: P388; assay: In vivo antitumor activity was determined against P388 tumor cell lines in mice at dose of 0.25 mg/kg administered intraperitoneally.; assay type: functional, Mus musculus; settings: route intraperitoneal
# [17] = tested on: P388; assay: In vivo antitumor activity was determined against P388 tumor cell lines in mice at dose of 0.125 mg/kg administered intraperitoneally.; assay type: functional, Mus musculus; settings: route intraperitoneal
Compound,MST [1],MST [2],IC50 [13],IC50 [14],IC50 [15],other results
CC(C)[C@H]1C(=O)OC[C@@H](NC(=O)c2cnc3ccccc3n2)C(=O)N[C@@H](C)C(=O)N(C)[C@H]2CSC([S+](C)[O-])[C@@H](C(=O)N1C)N(C)C(=O)[C@H](C)NC(=O)[C@H](NC(=O)c1cnc3ccccc3n1)COC(=O)[C@H](C(C)C)N(C)C2=O (some centres undefined) [listing 1 of 2 here],27 days,20 days,,,,
CSC1[C@H]2C(=O)N(C)[C@@H](C(C)C)C(=O)OC[C@@H](NC(=O)c3cnc4ccccc4n3)C(=O)N[C@@H](C)C(=O)N(C)[C@@H](C[S+]1C)C(=O)N(C)[C@@H](C(C)C)C(=O)OC[C@@H](NC(=O)c1cnc3ccccc3n1)C(=O)N[C@@H](C)C(=O)N2C.[Cl-] (some centres undefined) [listing 1 of 2 here],,,,,,MST [3]: 23 days; MST [4]: 25 days; MST [5]: 32 days; MST [6]: 33 days; MST [7]: 24 days; MST [8]: 28 days; MST [9]: 31 days; MST [10]: 34 days; MST [11]: 26 days; MST [12]: 35 days
CC(C)[C@H]1C(=O)OC[C@@H](NC(=O)c2cnc3ccccc3n2)C(=O)N[C@@H](C)C(=O)N(C)[C@H]2C[S+]([O-])C([S+](C)[O-])[C@@H](C(=O)N1C)N(C)C(=O)[C@H](C)NC(=O)[C@H](NC(=O)c1cnc3ccccc3n1)COC(=O)[C@H](C(C)C)N(C)C2=O (some centres undefined) [listing 1 of 2 here],,,98 ng/mL,590 ng/mL,1700 ng/mL,
COc1cccc2c1C(=O)c1c(O)c3c(c(O)c1C2=O)C[C@@](O)(C(=O)CO)C[C@@H]3O[C@H]1C[C@H](N)[C@H](O)[C@H](C)O1 [DOXORUBICIN],,,9.6 ng/mL,160 ng/mL,540 ng/mL,
CC(C)[C@H]1C(=O)OC[C@@H](NC(=O)c2cnc3ccccc3n2)C(=O)N[C@@H](C)C(=O)N(C)[C@H]2CSC(S(C)(=O)=O)[C@@H](C(=O)N1C)N(C)C(=O)[C@H](C)NC(=O)[C@H](NC(=O)c1cnc3ccccc3n1)COC(=O)[C@H](C(C)C)N(C)C2=O (some centres undefined) [listing 1 of 2 here],,,60 ng/mL,1100 ng/mL,820 ng/mL,
CS[C@H]1SC[C@H]2C(=O)N(C)[C@@H](C(C)C)C(=O)OC[C@@H](NC(=O)c3cnc4ccccc4n3)C(=O)N[C@@H](C)C(=O)N(C)[C@@H]1C(=O)N(C)[C@@H](C(C)C)C(=O)OC[C@@H](NC(=O)c1cnc3ccccc3n1)C(=O)N[C@@H](C)C(=O)N2C [ECHINOMYCIN],27 days,21 days,0.043 ng/mL,0.00016 ng/mL,6.5e-05 ng/mL,MST [3]: 23 days; MST [16]: 26 days; MST [4]: 25 days; MST [5]: 32 days; MST [7]: 24 days; MST [9]: 31 days; MST [11]: 23 days; MST [17]: 33 days
CSC1[C@H]2C(=O)N(C)[C@@H](C(C)C)C(=O)OC[C@@H](NC(=O)c3cnc4ccccc4n3)C(=O)N[C@@H](C)C(=O)N(C)[C@@H](C[S+]1C)C(=O)N(C)[C@@H](C(C)C)C(=O)OC[C@@H](NC(=O)c1cnc3ccccc3n1)C(=O)N[C@@H](C)C(=O)N2C.[Cl-] (some centres undefined) [listing 2 of 2 here],,,0.0081 ng/mL,0.0049 ng/mL,0.09 ng/mL,
CC(C)[C@H]1C(=O)OC[C@@H](NC(=O)c2cnc3ccccc3n2)C(=O)N[C@@H](C)C(=O)N(C)[C@H]2C[S+]([O-])C([S+](C)[O-])[C@@H](C(=O)N1C)N(C)C(=O)[C@H](C)NC(=O)[C@H](NC(=O)c1cnc3ccccc3n1)COC(=O)[C@H](C(C)C)N(C)C2=O (some centres undefined) [listing 2 of 2 here],31 days,17 days,,,,
CC(C)[C@H]1C(=O)OC[C@@H](NC(=O)c2cnc3ccccc3n2)C(=O)N[C@@H](C)C(=O)N(C)[C@H]2CSC([S+](C)[O-])[C@@H](C(=O)N1C)N(C)C(=O)[C@H](C)NC(=O)[C@H](NC(=O)c1cnc3ccccc3n1)COC(=O)[C@H](C(C)C)N(C)C2=O (some centres undefined) [listing 2 of 2 here],,,8.8 ng/mL,540 ng/mL,310 ng/mL,
CC(C)[C@H]1C(=O)OC[C@@H](NC(=O)c2cnc3ccccc3n2)C(=O)N[C@@H](C)C(=O)N(C)[C@H]2CSC(S(C)(=O)=O)[C@@H](C(=O)N1C)N(C)C(=O)[C@H](C)NC(=O)[C@H](NC(=O)c1cnc3ccccc3n1)COC(=O)[C@H](C(C)C)N(C)C2=O (some centres undefined) [listing 2 of 2 here],25 days,17 days,,,,
